Marks after values point to notes of the source that are not given here.
Columns and labels:
[1] = Liver oxidative stress markers after treatment of MNU-induced rats; format: in vivo, Wistar rats; details: liver; for CAT: catalase activity; for GSH: reduced glutathione; for SOD (U/mg): superoxide dismutase activity
Protocol: (§1) Rats were housed at 3 per cage and
(§2) The breast cancer was induced after the MNU (Sigma Aldrich CAS No. 684-93-5) administration. An aqueous solution at a concentration of 10 mg/ml was made by wetting the NMU powder with 3% acetic acid and then dissolving it in 0.9% NaCl solution; a fresh solution was prepared for each injection. Rats were given intraperitoneal (i.p.) 50 mg/kg of MNU on the 50th day of age. Animals were divided into different groups with six animals in each group. Group I (intact control) received 0.9% NaCl solution.
(§3) Groups II-IV and V-VII were introduced with MNU. Two weeks after MNU treatment, animals were treated orally with synthesized compounds and control substances (5 and 50 mg/kg, for groups II-IV and V-VII, respectively) by gavage once per day for six weeks. Animals in the intact control group and untreated MNU group were given vehicle (Tween 80) according to the experimental protocol. […]
(§4) Upon finishing the treatment with synthesized compounds, animals were sacrificed, and plasma, serum, and liver samples were collected. […]
Determination of Antioxidant Markers in Liver Homogenate
Rat liver samples were homogenized in phosphate buffer (5 mM, pH = 7.4) to give a 10% (w/v) liver homogenate and then centrifuged at 4000 rpm for 15 min at 4°C. The supernatant of liver homogenate was used for the estimation of reduced glutathione (GSH) and catalase (CAT) levels by the colorimetric method. The contents of malondialdehyde (MDA) in the supernatant of the liver homogenates were determined using 1,1,3,3-tetraethoxypropane as standard. Total protein concentrations were determined according to the method of Lowry using bovine serum albumin as […]

[2] = rat, in vivo
[3] = MTT antiproliferative assay (neutral control); details: human
[4] = Pharmacokinetics study, oral bioavailability; details: rat
[5] = test system: MCF-7 cells; experiment: Cell cycle distribution by flow cytometry; format: cell-based, human; details: 24 h
[6] = test system: MCF-7 cell lines; experiment: MTT antiproliferative assay; format: cell-based, human; details: Homo sapiens, MCF7; growth inhibition, 48 h; read-out: MCF-7 (IC50 nM)
[7] = target: ERβ (Homo sapiens, UniProt Q92731); experiment: Fluorescence polarization competition assay: antagonistic potency and relative binding affinity
[8] = Serum biochemical markers after treatment of MNU-induced rats; format: in vivo, Wistar rats; design: TBC: unit not given here; details: for ALP (A/L) / ALT (A/L) / AST (U/L) / γ-GT (U/L): serum; for TBC: total bilirubin content
Protocol: as §1, §2, §3
Upon finishing the treatment with synthesized compounds, animals were sacrificed, and plasma, serum, and liver samples were collected.
Measurement of Serum Biochemical Markers
The activities of AST and ALT on 340 nm, and ALP on 405 nm, were determined by UV-Vis kinetic methods according to recommendations of the Expert Panel of the IFCC (International Federation of Clinical Chemistry). The colorimetric methods were used for the determination of total bilirubin (Jendrassik-Grof 550 nm method). All kinetic and colorimetric measurements were recorded using a Perkin-Elmer Lambda 25 UV/Vis spectrophotometer. […]

[9] = Lipophilicity by shake-flask method; details: pH 7.4
[10] = Plasma protein binding determination; format: in vitro ADME, rat; details: rat plasma, 37 °C, read-out: Rat PPB (%free)
Protocol: as §1, §2, §3, §4
Rat plasma containing either 5 or 50 mg/kg bwt of the tested compounds was incubated at 37°C upper reservoir of the washed Centri-free YM-30 ultrafiltration units (Millipore, Bedford, MA) and then centrifuged for 20 min at 2,000 g. Aliquots of the ultrafiltrates and unfiltered incubation mixtures were analyzed for the total protein concentration by the bicinchoninic acid assay for protein concentration (BCA assay; Pierce, Rockford, IL).

[11] = test system: progesterone receptor (PR); experiment: ERα functional antagonism cell assay (PR as biomarker) in MCF-7; format: cell-based; details: Homo sapiens, MCF7; progesterone receptor as biomarker for ERα antagonism in MCF-7
[12] = test system: MDA-MB-231 cell lines; experiment: MTT antiproliferative assay; format: cell-based, human; details: Homo sapiens, MDA-MB-231; growth inhibition, 48 h; read-out: MDA-MB-231 (IC50 nM)
[13] = test system: MNU-induced breast cancer; experiment: In vivo anticancer screening, MNU-induced mammary tumorigenesis; design: species or system female Wistar rats
[14] = test system: Ishikawa endometrial adenocarcinoma cells; experiment: Antiproliferative assay; format: cell-based; details: Homo sapiens, growth inhibition
Text: As SERMs profile is often associated with the stimulation of endometrial cell proliferation and an increase in the incidence of endometrial cancer (EC), the herein compounds were therefore evaluated against Ishikawa endometrial adenocarcinoma cells (Table 8, Supplementary Material Figures […]). […] However, future experimental elaboration, currently beyond the authors' experimental facilities, is required to confirm compounds' promising profiles in terms of no EC induction.

[15] = test system: MNU-induced breast cancer tissue; experiment: Histopathology of breast sections; format: in vivo, Wistar rats
Text: The impact of selected leads on BC tissue was registered after their administration to experimental animals with MNU-induced BC (Figure 9 and Supplementary Material Figures S211–S218). […] In contrast to this, the administered leads were harmless in both concentrations, neutralizing the MNU-induced changes, judging by the lobuloalveolar units and cuboidal epithelial cells found (Figure 9C,D, and Supplementary Material Figures S214–S218). […]
Histopathological Studies
histopathological changes. […]

[16] = dose 50 mg/kg (compounds per os after MNU; MNU alone i.p.)

ERβ, sequence (Q92731 whole entry): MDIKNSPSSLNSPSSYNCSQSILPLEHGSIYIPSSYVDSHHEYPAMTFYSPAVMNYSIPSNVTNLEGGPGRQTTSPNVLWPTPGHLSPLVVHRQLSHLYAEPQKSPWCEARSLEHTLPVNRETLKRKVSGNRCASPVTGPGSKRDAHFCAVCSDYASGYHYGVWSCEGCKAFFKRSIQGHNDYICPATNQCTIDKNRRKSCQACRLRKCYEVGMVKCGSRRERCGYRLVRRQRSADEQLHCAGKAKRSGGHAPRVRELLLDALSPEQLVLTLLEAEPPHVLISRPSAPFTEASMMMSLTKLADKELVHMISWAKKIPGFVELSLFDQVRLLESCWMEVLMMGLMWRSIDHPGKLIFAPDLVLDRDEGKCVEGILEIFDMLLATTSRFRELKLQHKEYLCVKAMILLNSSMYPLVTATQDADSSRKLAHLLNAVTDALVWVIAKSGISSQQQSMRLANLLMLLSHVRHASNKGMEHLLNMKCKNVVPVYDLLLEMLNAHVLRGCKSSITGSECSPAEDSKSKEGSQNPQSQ

CC(=O)c1cc(C(=O)O[C@@H]2/C=C/C(=O)O[C@@H](O)CCC/C=C/[C@@H]3C[C@H](O)C[C@H]32)ccc1OCCS(=O)(=O)O [Compound 3DPQ-4, 2-(2-acetyl-4-((((1R,2E,6R,10E,11aS,13S,14aR)-6,13-dihydroxy-4-oxo-4,6,7,8,9,11a,12,13,14,14a-decahydro-1H-cyclopenta[f][1]oxacyclotridecin-1-yl)oxy)carbonyl)phenoxy)ethanesulfonic acid]
CAT ([1]; dose 5 mg/kg): 16.34±0.73
CAT ([1]; dose 50 mg/kg): 16.43±0.66
TBARS ([1]; dose 5 mg/kg): 0.65 ± 0.21 nmol/mg
TBARS ([1]; dose 50 mg/kg): 0.65 ± 0.34 nmol/mg
GSH ([1]; dose 5 mg/kg): 9.87 mg/g
GSH ([1]; dose 50 mg/kg): 10.36 mg/g
SOD (U/mg) ([1]; dose 5 mg/kg): 8.73±0.38 U/mg
SOD (U/mg) ([1]; dose 50 mg/kg): 10.57±0.73 U/mg
TP ([1]; total protein content, dose 50 mg/kg): 48.54 g/L
WL after MFD (day 1, mg) [2]: 320.73 ± 0.36 mg
IC50 at 48 h [3]: > 100 nM
BIO ([4]; oral 5 mg/kg): 90
BIO ([4]; oral 50 mg/kg): 93
Cell Cycle (%) G0/G1 ([5]; 0.1 nM): 77.78 ± 3.54 *^,†,‡,§ %
Cell Cycle (%) G2/M ([5]; 0.1 nM): 15.02 ± 4.23 *^,†,‡,§ %
Cell Cycle (%) S ([5]; 0.1 nM): 7.20 ± 2.88 *^,†,‡,§ %
Cell Cycle (%) G0/G1 ([5]; 1 nM): 80.24 ± 2.53 *^,†,‡,§ %
Cell Cycle (%) G2/M ([5]; 1 nM): 11.86 ± 3.43 *^,†,‡,§ %
Cell Cycle (%) S ([5]; 1 nM): 7.91 ± 0.1.54 *^,†,‡,§ %
IC50 [6]: 0.64 ± 0.15 nM
Ki ([7]; calculated antagonistic (inhibitory) constant, read-out: Ka ERβ): 46.3 nM
IC50 ([7]; concentration that antagonizes 50% of ERβ signaling activity, read-out: ERβ (IC50 nM)): 82.45 ± 0.54 nM
logRBA ERβ ([7]; log of % relative binding affinity, estradiol = 100%): 0.03 ^†,‡,§
ALP (A/L) ([8]; dose 5 mg/kg): 99.41±0.15 A/L
ALT (A/L) ([8]; dose 5 mg/kg): 55.87±0.62 A/L
AST (U/L) ([8]; dose 5 mg/kg): 57.53±0.43 U/L
γ-GT (U/L) ([8]; dose 5 mg/kg): 11.54±0.53 U/L
ALP (A/L) ([8]; dose 50 mg/kg): 104.52±0.31 A/L
ALT (A/L) ([8]; dose 50 mg/kg): 59.74±0.1 A/L
AST (U/L) ([8]; dose 50 mg/kg): 59.46±0.63 U/L
γ-GT (U/L) ([8]; dose 50 mg/kg): 13.46±0.55 U/L
TBC ([8]; dose 5 mg/kg): 19.31
TBC ([8]; dose 50 mg/kg): 22.74
logD at 30 min [9]: 1.88
fraction unbound at 5 mg/kg bwt ([10]; 5 mg/kg): 0.0123
fraction unbound at 50 mg/kg bwt ([10]; 50 mg/kg): 0.0151
IC50 [11]: > 100 nM
IC50 [12]: 67.31 ± 0.34 nM
Tumor Burden (week) ([13]; dose 5 mg/kg per os after MNU): 2.39 ± 0.56 *^,†,‡,‖ week
Tumor Latency (week) ([13]; dose 5 mg/kg per os after MNU): 10 *^,† week
Tumor Volume (mm^3) ([13]; dose 5 mg/kg per os after MNU): 0.98 ± 0.31 *^,†,‡,‖ mm^3
Tumor Burden (week) [13, 16]: 1.33 ± 0.15 *^,†,§,┴ week
Tumor Latency (week) [13, 16]: 14 *^,† week
Tumor Volume (mm^3) [13, 16]: 0.41 ± 0.23 *^,†,§,┴ mm^3
IC50 [14]: 0.92 ± 0.43 nM
breast section histopathology ([15]; 5 mg/kg of bwt): lobuloalveolar unit (LaU) and cuboidal epithelial cells (CE)
breast section histopathology ([15]; 50 mg/kg of bwt): lobuloalveolar unit (LaU) and cuboidal epithelial cells (CE)
